{"source": "patent US4181715A", "about": "(priority 1975, dated 1980)", "key": {"[1]": {"tested_on": "rice blast pathogenic fungus (Pyricularia oryzae)", "format": "in vivo", "details": "5 ppm"}, "[2]": {"tested_on": "Trichomonas vaginalis Ito", "test": "Antitrichomonas activity test using mice", "format": "in vivo, Trichomonas vaginalis Ito in SLC-ICR strain male mice", "excerpt": "Test Compounds: SF-1540-A' (substance SF-1540 treated with methanol). Control--Flagyl (MNZ, available from Shionogi Seiyaku K.K., Japan)=Metronidazol--1'-(2'-Hydroxyethyl)-2'-methyl-5'-nitroimidazole [drawing 1]\n1. Test protozoa strain: Trichomonas vaginalis Ito\n2. Host animals: SLC-ICR strain male mice of average body weight of 20 g. and 5-week age, each group consisting of 5 animals.\n3. Inoculation of protozoa: Protozoa were inoculated to Bacto-Kupferberg Trichomonas base (Difco; 20% calf serum added), cultivation was conducted at 37° C. for 24 hours, propagated protozoa were collected and centrifuged at 1500 r.p.m. for 5 minutes and then washed twice with centrifugation in sterilized Locke-Ringer's solution. The supernatant was discarded and the residue was diluted with sterilized Ringer's solution so as to have a protozoal number of 500×10^4 ml. Each 0.2 ml. portion (the protozoal number of 100×10^4) was inoculated to mice at subcutaneous sites of the back thereof wherein fur was previously removed.\n4. Preparation of test samples: Each test compound was asceptically weighed, finely-divided in a sterilized mortar and then suspended in a 1% CMC solution to form suspensions of given concentrations.\n5. Dose and administration: The SF-1540-A' was used at 3 dose levels: 50 mg./kg. (1 mg./0.2 ml./mouse/day), 25 mg./kg. (0.5 mg./0.2 ml./mouse/day) and 12.5 mg./kg. (0.25 mg./0.2 ml./mouse/day), while Flagyl as control was used at 2 dose levels: 25 mg./kg. (0.5 mg./0.2 ml./mouse/day) and 12.5 mg./kg. (0.25 mg./0.2 ml./mouse/day). After 24 hours from protozoa inoculation, the SF-1540-A' was given subcutaneously and Flagyl orally once a day for 6 days (Total, 6 times). As control, each 0.2 ml. portion of a 1% CMC solution was subcutaneously administered.\nFormation of an abscess at a subcutaneous site of the back of a host animal was visually detectable for its protuberance after 48 hours from the protozoa inoculation.\nSize of abscess was measured when sacrificed and cultivated to confirm effectiveness of the test compound after 24 hours from the 6 administrations."}}}
{"molecule": "CN(CCC(N)CC(=O)NC1C=CC(n2ccc(N)nc2=O)OC1C(=O)O)C(=N)N", "note": "(stereo not shown) [Blasticidin S]", "values": [{"measurement": "Preventive & curative value", "setting": "[1]", "result": 85, "unit": "%"}, {"measurement": "Average number of diseased spots per leaf", "setting": "[1]; after 5 days", "result": 3.6}]}
{"molecule": "Cc1ncc([N+](=O)[O-])n1CCO", "note": "[Flagyl, 1'-(2'-Hydroxyethyl)-2'-methyl-5'-nitroimidazole]", "values": [{"measurement": "difference from 1% CMC group (Tukey)", "setting": "[2]; 12.5 mg./kg. orally", "result": "significant at the 5% level of significance"}, {"measurement": "difference from 1% CMC group (Tukey)", "setting": "[2]; 25 mg./kg. orally", "result": "significant at the 1% level of significance"}, {"measurement": "abscess, visual observation", "setting": "[2]; 25 mg./kg. orally once a day, after 3 administrations", "result": "a remarkable reduction in abscess"}, {"measurement": "abscess at sacrifice, 24 hours after 6 administrations", "setting": "[2]; mouse, in vivo, po", "result": "abscess disappeared"}, {"measurement": "bulge upon sacrifice", "setting": "[2]; mouse, in vivo, po", "result": "only a slight bulge"}]}
